Entries after “also recorded” stand apart in the source; their conditions may differ. Square brackets hold non-standard residues; d marks the D form. Peptide text beside a SMILES is read from it. β3hW = N[C@H](CC(=O)O)Cc1c[nH]c2ccccc12; β3hR = N=C(N)NCCC[C@H](N)CC(=O)O; β3hE = N[C@@H](CCC(=O)O)CC(=O)O; β3hQ = NC(=O)CC[C@H](N)CC(=O)O; β3hD = NC(CC(=O)O)CC(=O)O; β3hA = C[C@H](N)CC(=O)O
Tests used:
pro-survival proteins = details: ref [37]; cited from earlier work
Bcl-2 = Bcl-2 (Homo sapiens, UniProt P10415); experiment: Solution competition SPR; format: binding
Mcl-1 = Mcl-1 (Homo sapiens, UniProt Q07820, A193S/E173D/K208R/M199L/R201E/S202A/S206G/T196S/T205A); experiment: Solution competition SPR; format: binding, human/mouse chimeric; details: for affinity for Mcl-1: SPR, in words
Bcl-xL [1] = target: T1, Bcl-xL (Homo sapiens, UniProt Q07817); experiment: Solution competition SPR; format: binding; details: for affinity for Bcl-xL: SPR, in words
Bcl-w = target: T2, Bcl-w (Homo sapiens, UniProt Q92843, A128E/C29S); experiment: Solution competition SPR; format: binding
T2 sequence (Q92843 1-164 C29S/A128E limits assumed): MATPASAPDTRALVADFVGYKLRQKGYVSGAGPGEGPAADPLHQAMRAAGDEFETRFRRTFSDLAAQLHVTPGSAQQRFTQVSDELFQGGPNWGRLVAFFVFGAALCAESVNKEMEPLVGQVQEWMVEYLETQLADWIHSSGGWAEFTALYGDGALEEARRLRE

Bcl-xL [2] = target: T1, Bcl-xL; details: preliminary studies; ref [14]; cited from earlier work
[3] = ref [14]; cited from earlier work

T1 sequence (Q07817 1-209 limits assumed): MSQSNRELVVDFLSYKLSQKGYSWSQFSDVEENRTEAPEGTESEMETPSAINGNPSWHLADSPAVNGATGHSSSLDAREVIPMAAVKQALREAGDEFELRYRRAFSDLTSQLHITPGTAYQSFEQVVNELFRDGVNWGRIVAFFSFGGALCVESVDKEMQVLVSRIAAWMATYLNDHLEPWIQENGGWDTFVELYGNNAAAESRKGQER
Chain of Mcl-1 (Q07820 171-327 E173D/A193S/T196S/M199L/R201E/S202A/T205A/S206G/K208R limits assumed): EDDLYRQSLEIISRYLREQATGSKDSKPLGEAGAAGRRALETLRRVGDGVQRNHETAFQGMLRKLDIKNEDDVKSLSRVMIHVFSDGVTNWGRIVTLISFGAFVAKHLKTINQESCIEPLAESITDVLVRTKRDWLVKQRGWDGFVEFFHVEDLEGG
Chain of Bcl-2 (P10415 1-217 limits assumed, species assumed): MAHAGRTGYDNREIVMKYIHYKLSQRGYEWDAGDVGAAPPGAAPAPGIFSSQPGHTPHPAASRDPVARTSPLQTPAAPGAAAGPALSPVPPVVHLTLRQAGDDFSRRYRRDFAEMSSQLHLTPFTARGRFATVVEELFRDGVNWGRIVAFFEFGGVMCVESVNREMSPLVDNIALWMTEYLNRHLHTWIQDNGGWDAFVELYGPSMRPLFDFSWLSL

Compound | binding to all pro-survival proteins (pro-survival proteins) | IC50 (Bcl-2) [nM] | IC50 (Mcl-1) [nM] | IC50 (Bcl-xL [1]) [nM] | IC50 (Bcl-w) [nM] | binding to Bcl-xL (Bcl-xL [2]) | resistance to proteolytic degradation [3] | affinity for Mcl-1 (Mcl-1) | affinity for Bcl-xL (Bcl-xL [1])
CC[C@H](C)[C@H](NC(=O)[C@H](CCC(=O)O)NC(=O)[C@H](CCCNC(=N)N)NC(=O)[C@H](C)NC(=O)[C@H](Cc1c[nH]c2ccccc12)NC(=O)[C@H](CCC(N)=O)NC(=O)[C@H](CCC(=O)O)NC(=O)[C@H](CCC(=O)O)NC(C)=O)C(=O)NCC(=O)N[C@@H](C)C(=O)N[C@@H](CCC(N)=O)C(=O)N[C@@H](CC(C)C)C(=O)N[C@@H](CCCNC(=N)N)C(=O)N[C@@H](CCCNC(=N)N)C(=O)N[C@@H](CCSC)C(=O)N[C@@H](C)C(=O)N[C@@H](CC(=O)O)C(=O)N[C@@H](CC(=O)O)C(=O)N[C@@H](CC(C)C)C(=O)N[C@@H](CC(N)=O)C(=O)N[C@@H](C)C(=O)N[C@@H](CCC(N)=O)C(=O)N[C@@H](Cc1ccc(O)cc1)C(=O)N[C@@H](CCC(=O)O)C(=O)N[C@@H](CCCNC(=N)N)C(=O)N[C@@H](CCCNC(=N)N)C(N)=O [α-peptide 1] | promiscuous binder capable of engaging all pro-survival proteins with high affinity | 5 | 10 | 18 | 13 | – | – | – | –
CC[C@H](C)[C@H](NC(=O)C[C@H](CCC(=O)O)NC(=O)[C@H](CCCNC(=N)N)NC(=O)[C@H](C)NC(=O)C[C@H](Cc1c[nH]c2ccccc12)NC(=O)[C@H](CCC(N)=O)NC(=O)[C@H](CCC(=O)O)NC(=O)[C@H](CCC(=O)O)NC(C)=O)C(=O)NCC(=O)N[C@@H](C)C(=O)N[C@@H](CCC(N)=O)CC(=O)N[C@@H](CC(C)C)C(=O)N[C@@H](CCCNC(=N)N)C(=O)N[C@@H](CCCNC(=N)N)CC(=O)N[C@@H](CCSC)C(=O)N[C@@H](C)C(=O)N[C@@H](CC(=O)O)C(=O)N[C@@H](CC(=O)O)CC(=O)N[C@@H](CC(C)C)C(=O)N[C@@H](CC(N)=O)C(=O)N[C@@H](C)CC(=O)N[C@@H](CCC(N)=O)C(=O)N[C@@H](Cc1ccc(O)cc1)C(=O)N[C@@H](CCC(=O)O)C(=O)N[C@@H](CCCNC(=N)N)CC(=O)N[C@@H](CCCNC(=N)N)C(N)=O [α/β-peptide 2] | – | – | – | – | – | bound tightly | significant resistance to proteolytic degradation | does not bind tightly to Mcl-1; also recorded: low affinity; also recorded: relatively weak binding | strong binding; also recorded: high affinity
CC[C@H](C)[C@H](NC(=O)C[C@H](CCC(=O)O)NC(=O)[C@H](CCCNC(=N)N)NC(=O)[C@H](C)NC(=O)C[C@H](Cc1c[nH]c2ccccc12)NC(C)=O)C(=O)NCC(=O)N[C@@H](C)C(=O)N[C@@H](CCC(N)=O)CC(=O)N[C@@H](CC(C)C)C(=O)N[C@@H](CCCNC(=N)N)C(=O)N[C@@H](CCCNC(=N)N)CC(=O)N[C@@H](CCSC)C(=O)N[C@@H](C)C(=O)N[C@@H](CC(=O)O)C(=O)N[C@@H](CC(=O)O)CC(=O)N[C@@H](CC(C)C)C(=O)N[C@@H](CC(N)=O)C(=O)N[C@@H](C)CC(=O)N[C@@H](CCC(N)=O)C(=O)N[C@@H](Cc1ccc(O)cc1)C(=O)N[C@@H](CCC(=O)O)C(N)=O [α/β-peptide 3] (Ac-[β3hW]AR[β3hE]IGA[β3hQ]LR[β3hR]MAD[β3hD]LN[β3hA]QYE-NH2; N-terminus assumed) | – | – | – | – | – | – | – | low affinity | high affinity

Reference: paper PMC3263372 (Chembiochem, 2011)
